Type in all cases: biochemical
What all share (details): 200 μg/ml Poly Glu-Tyr (4:1), ATP 1 uM, 90 min room temperature, luminescence

In experiment [1] the target is T1, Recombinant JAK3 (Amino acids 781-1124) (Homo sapiens, UniProt P52333).
T1 construct: JAK3 (Amino acids 781-1124; NM_000215.3); made in house; host or cells: baculovirus expression system (Bac-to-Bac)
In words: Kinase-Glo Luminescent Kinase Assay, recombinant JAK3. An outline of the steps:
(§1)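 Baculovirus-expressed kinase domains were pre-incubated 5 min with compound (1% DMSO), then reacted 90 min at room temperature with 200 μg/ml poly Glu-Tyr (4:1) and 1 uM ATP in 50 mM HEPES pH 7.4, 5 mM MgCl2. Remaining ATP was read by Kinase-Glo luminescence. IC50 came from four-parameter logistic fits.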
A general note: In Kinase-Glo more light means more ATP remaining.

For experiment [2], the target named is T2, Recombinant JAK1 (Amino acids 850-1154) (Homo sapiens, UniProt P23458).
T2 construct: Recombinant JAK1 (Amino acids 850-1154; NM_002227.2); made in house; host or cells: baculovirus expression system (Bac-to-Bac)
T2 sequence (P23458 850-1154): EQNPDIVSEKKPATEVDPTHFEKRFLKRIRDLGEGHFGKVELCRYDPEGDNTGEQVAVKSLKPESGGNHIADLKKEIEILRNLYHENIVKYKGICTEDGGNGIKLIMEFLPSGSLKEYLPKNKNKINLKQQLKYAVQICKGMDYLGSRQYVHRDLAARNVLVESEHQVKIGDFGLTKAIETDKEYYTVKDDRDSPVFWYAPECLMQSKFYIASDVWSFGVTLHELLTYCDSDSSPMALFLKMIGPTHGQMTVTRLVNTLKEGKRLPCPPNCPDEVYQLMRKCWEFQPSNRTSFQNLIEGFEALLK
The experiment is described as follows: Kinase-Glo Luminescent Kinase Assay, recombinant JAK1. An outline of the steps: as §1

Experiment [3] concerns the target T3, Recombinant JAK2 (Amino acids 808-1132) (Homo sapiens, UniProt O60674).
T3 construct: JAK2 (Amino acids 808-1132; NM_004972.3); made in house; host or cells: baculovirus expression system (Bac-to-Bac)
In words: Kinase-Glo Luminescent Kinase Assay, recombinant JAK2. An outline of the steps:
as §1

A value given as a limit tells only on which side of the number the result lay.

T3 sequence (O60674 808-1132): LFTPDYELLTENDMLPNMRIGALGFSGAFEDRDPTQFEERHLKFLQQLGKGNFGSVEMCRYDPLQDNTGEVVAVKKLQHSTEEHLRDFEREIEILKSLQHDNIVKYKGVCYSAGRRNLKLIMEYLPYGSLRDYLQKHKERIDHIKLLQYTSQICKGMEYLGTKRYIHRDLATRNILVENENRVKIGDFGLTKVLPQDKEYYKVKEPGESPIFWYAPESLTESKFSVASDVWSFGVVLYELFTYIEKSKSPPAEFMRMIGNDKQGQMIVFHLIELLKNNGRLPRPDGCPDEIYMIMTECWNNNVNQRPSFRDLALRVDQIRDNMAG
T1 sequence (P52333 781-1124): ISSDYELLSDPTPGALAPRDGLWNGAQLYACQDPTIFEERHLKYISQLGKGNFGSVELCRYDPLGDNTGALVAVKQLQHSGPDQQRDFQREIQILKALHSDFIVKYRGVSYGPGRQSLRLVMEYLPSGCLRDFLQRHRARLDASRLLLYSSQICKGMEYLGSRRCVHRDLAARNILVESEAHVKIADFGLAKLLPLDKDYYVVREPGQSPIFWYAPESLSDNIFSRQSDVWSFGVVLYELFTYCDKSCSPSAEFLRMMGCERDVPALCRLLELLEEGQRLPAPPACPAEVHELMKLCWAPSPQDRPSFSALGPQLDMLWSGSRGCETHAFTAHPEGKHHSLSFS

In general, IC50 refers to the point on the concentration scale where inhibition reaches its midpoint. Consider `CS(=O)(=O)N1CCCC(c2ccnc3cnc4[nH]ccc4c23)C1` (stereo not drawn) [Ex. 10, 9-(1-methylsulfonyl-3-piperidyl)-3H-pyrrolo[3,2-f][1,7]naphthyridine], for which the IC50 in experiment [1], in experiment [2] and in experiment [3] was 1 to 20 nM each time.

As to `CCNC(=O)N1CCCC(c2ccnc3cnc4[nH]ccc4c23)C1` (stereo not drawn) [Ex. 48, N-ethyl-3-(3H-pyrrolo[3,2-f][1,7]naphthyridin-9-yl)piperidine-1-carboxamide], the IC50 in experiment [1], in experiment [2] and in experiment [3] was over 20 nM in each case.

In the case of `N#CCC(=O)N1CCC[C@@H](c2ccnc3cnc4[nH]ccc4c23)C1` [Ex. 1B, (S)3-oxo-3-[3-(3H-pyrrolo[3,2-f][1,7]naphthyridin-9-yl)-1-piperidyl]propanenitrile], the IC50 is under 1 nM in experiment [1], 1 to 20 nM in experiment [2] and 1 to 20 nM in experiment [3].

`CCS(=O)(=O)N1CCC(c2ccnc3cnc4[nH]ccc4c23)C1` (stereo not drawn) [Ex. 19, 9-(1-ethylsulfonylpyrrolidin-3-yl)-3H-pyrrolo[3,2-f][1,7]naphthyridine]: the IC50 in experiment [1] is over 20 nM; in experiment [2] it was 1 to 20 nM; in experiment [3] it was 1 to 20 nM.

For the molecule `CC(C)CNC(=O)N1CCCC(c2ccnc3cnc4[nH]ccc4c23)C1` (stereo not drawn) [Ex. 49, N-isobutyl-3-(3H-pyrrolo[3,2-f][1,7]naphthyridin-9-yl)piperidine-1-carboxamide], the IC50 in experiment [1], in experiment [2] and in experiment [3] was over 20 nM throughout.

As to `O=C(NCC(F)(F)F)C1CCCN(c2ccnc3cnc4[nH]ccc4c23)C1` (stereo not drawn) [Ex. 83, 1-(3H-pyrrolo[3,2-f][1,7]naphthyridin-9-yl)-N-(2,2,2-trifluoroethyl)piperidine-3-carboxamide], the IC50 in experiment [1], in experiment [2] and in experiment [3] was 1 to 20 nM each time.

For `N#CCC(=O)N1CC[C@@H](c2ccnc3cnc4[nH]ccc4c23)C1` [Ex. 14B, (S)3-oxo-3-[3-(3H-pyrrolo[3,2-f][1,7]naphthyridin-9-yl)pyrrolidin-1-yl]propanenitrile], the results for the IC50 in experiment [1], in experiment [2] and in experiment [3] were over 20 nM, 1 to 20 nM and 1 to 20 nM, respectively.

As to `CC(C)NC(=O)C1CCCN(c2ccnc3cnc4[nH]ccc4c23)C1` (stereo not drawn) [Ex. 68, N-isopropyl-1-(3H-pyrrolo[3,2-f][1,7]naphthyridin-9-yl)piperidine-3-carboxamide], the concentration for half-maximal inhibition (IC50) in experiment [1], in experiment [2] and in experiment [3] was over 20 nM throughout.

Regarding `CC(C)CS(=O)(=O)N1CCC(c2ccnc3cnc4[nH]ccc4c23)C1` (stereo not drawn) [Ex. 18, 9-(1-isobutylsulfonylpyrrolidin-3-yl)-3H-pyrrolo[3,2-f][1,7]naphthyridine], the values for the IC50 in experiment [1], in experiment [2] and in experiment [3] were over 20 nM, 1 to 20 nM and 1 to 20 nM, respectively.

For `CC(C)NC(=O)N1CCCC(c2ccnc3cnc4[nH]ccc4c23)C1` (stereo not drawn) [Ex. 13, N-isopropyl-3-(3H-pyrrolo[3,2-f][1,7]naphthyridin-9-yl)piperidine-1-carboxamide], the IC50 in experiment [1], in experiment [2] and in experiment [3] was over 20 nM in each case.

For `O=C(NC1CCCN(c2ccnc3cnc4[nH]ccc4c23)C1)C1CC1` (stereo not drawn) [Ex. 74, N-[1-(3H-pyrrolo[3,2-f][1,7]naphthyridin-9-yl)-3-piperidyl] cyclopropanecarbox-amide], the IC50 in experiment [1], in experiment [2] and in experiment [3] was over 20 nM throughout.

Regarding `O=S(=O)(N1CCC(c2ccnc3cnc4[nH]ccc4c23)C1)C(F)(F)F` (stereo not drawn) [Ex. 17, 9-[1-(trifluoromethylsujlfonyl)pyrrolidin-3-yl]-3H-pyrrolo[3,2-f][1,7]naphthyridine], the values for the IC50 in experiment [1], in experiment [2] and in experiment [3] were over 20 nM, over 20 nM and 1 to 20 nM, respectively.

On to `CS(=O)(=O)CC(=O)N1CCCC(c2ccnc3cnc4[nH]ccc4c23)C1` (stereo not drawn) [Ex. 12, 2-methylsulfonyl-1-[3-(3H-pyrrolo[3,2-f][1,7]naphthyridin-9-yl)-1-piperidyl]ethanone], for which the IC50 in experiment [1] is over 20 nM; in experiment [2], 1 to 20 nM; in experiment [3], 1 to 20 nM.

The record behind these values is patent publication US9115133B2, “Substituted fused tricyclic compounds, compositions and medicinal applications thereof” (Advinus Therapeutics Limited, priority 2011, dated 2015).
